Results on eight compounds are retold here after patent publication EP4692114A1, “CALCITONIN ANALOGUE, AND DERIVATIVE THEREOF AND USE THEREOF” (Hangzhou Sciwind Biosciences Co., Ltd., priority 2023, dated 2024).

As a reminder, the EC50 is the midpoint of the concentration-response curve. High values mean a need for much substance, low ones an effect from little substance.

*1 amine or outer side, *2 acyl side, *3 side chain or, on linkers, in order; H or OH if unused. Where a SMILES comes first, the peptide text is derived from it. [ ]: non-standard residue; d: D form. The star is where a group is joined. C20 diacid = O=C(O)CCCCCCCCCCCCCCCCCCC(=O)*; γGlu = O=C(O)[C@H](CCC(=O)[*:2])N[*:1]; βAsp = O=C(O)[C@H](CC(=O)[*:2])N[*:1]; AEEA = NCCOCCOCC(=O)O; Inp = O=C(O)C1CCNCC1

The test addresses T1, human amylin receptors (Homo sapiens, UniProt O60896+P30988).
T1 sequence (P30988 25-474): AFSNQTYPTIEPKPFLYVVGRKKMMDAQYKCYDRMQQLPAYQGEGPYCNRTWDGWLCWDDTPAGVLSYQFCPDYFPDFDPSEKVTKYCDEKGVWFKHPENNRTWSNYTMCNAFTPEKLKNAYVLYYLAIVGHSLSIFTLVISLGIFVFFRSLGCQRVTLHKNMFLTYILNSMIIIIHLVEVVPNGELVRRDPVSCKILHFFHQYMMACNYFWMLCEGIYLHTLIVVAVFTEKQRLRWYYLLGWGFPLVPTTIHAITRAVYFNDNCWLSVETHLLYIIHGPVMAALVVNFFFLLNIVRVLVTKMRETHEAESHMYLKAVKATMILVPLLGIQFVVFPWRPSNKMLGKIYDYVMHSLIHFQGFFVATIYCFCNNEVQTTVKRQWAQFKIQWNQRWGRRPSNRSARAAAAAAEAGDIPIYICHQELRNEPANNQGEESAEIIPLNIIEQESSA
T1 sequence (O60896 24-148 partner): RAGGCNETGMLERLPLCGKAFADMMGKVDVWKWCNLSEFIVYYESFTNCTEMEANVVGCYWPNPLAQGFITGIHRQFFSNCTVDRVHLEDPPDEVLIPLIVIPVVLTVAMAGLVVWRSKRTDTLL
Briefly: Luciferase assay of amylin (amylin receptor/CRE-luc cell line).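 Also: agonist potency from luminescence of cAMP response element-driven luciferase, EC50 derived from a standard curve of signal versus compound concentration.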 The class given is cell-based. Conditions: stably transfected amylin receptor/CRE-luc CHO cells (CHO-K1/Gal5/AMY3), 24 hours incubation, luciferase readout.
Source text: The objective of this assay is to test the activity or potency of calcitonin analogues or derivatives on human amylin receptors in vitro using a luciferase assay.
Using the standard protocol, CHO-K1/Gal5/AMY3 cells (purchased from GenScript, with the calcitonin receptor and the receptor activity modifying peptide (RAMP) constructed already) were transfected with a plasmid containing a luciferase expression cassette driven by multiple copies of cAMP response elements (CREs). The cells were cultured in an F12 medium containing 200 ug/mL Zeocin, 2 ug/mL puromycin, 100 ug/mL hygromycin, and 400 ug/mL G418 to afford a stably transfected amylin receptor/CRE-luc cell line.
To each well of a white 96-well plate was added 50 µL of the tested sample solution at a respective concentration.
The stably transfected amylin receptor/CRE-luc CHO cells were resuspended in the growth medium at a certain density, and 50 µL of the cell suspension was added at a density of about 20000 cells per well to the white 96-well plate containing the tested sample solution. After incubation of 24 hours at 37°C and 5% CO2, 100 µL of a Luciferase substrate was added to each well, incubated for 3 minutes, and finally was tested for luminescence on SpectraMax L (Molecular Devices) with the software SoftMax Pro 7.0.3 GxP. A standard curve was plotted using the fluorescent intensities for calculation of EC50.
On to `CC(C)C[C@H](NC(=O)[C@H](CCCNC(=N)N)NC(=O)CNC(=O)[C@H](CC(C)C)NC(=O)[C@@H](NC(=O)[C@H](C)NC(=O)[C@@H](NC(=O)[C@H](CO)NC(=O)[C@H](CC(C)C)NC(=O)[C@H](CCC(N)=O)NC(=O)[C@H](CO)NC(=O)[C@H](C)NC(=O)[C@H](CC(=O)O)NC(=O)CCCCCCCCCCCCCCCCCCC(=O)O)[C@@H](C)O)C(C)C)C(=O)N[C@@H](CO)C(=O)N[C@@H](CCC(=O)O)C(=O)N[C@@H](CCC(=O)O)C(=O)N[C@@H](CC(C)C)C(=O)N[C@@H](Cc1c[nH]cn1)C(=O)N[C@@H](CCCNC(=N)N)C(=O)N[C@@H](CC(C)C)C(=O)N[C@@H](CCC(N)=O)C(=O)N[C@@H](CC(=O)O)C(=O)N[C@@H](Cc1ccc(O)cc1)C(=O)N1CCC[C@H]1C(=O)N[C@@H](CCCNC(=N)N)C(=O)N[C@H](C(=O)N[C@@H](CC(=O)O)C(=O)N[C@H](C(=O)NCC(=O)N[C@@H](CO)C(=O)NCC(=O)N[C@@H](CO)C(=O)N1CCC[C@H]1C(N)=O)C(C)C)[C@@H](C)O` [M54] ({C20 diacid}-DASQLSTAVLGRLSEELHRLQDYPRTDVGSGSP-NH2), for which a half-maximal effect (EC50) was put at 0.017 nM. Take `CC(C)C[C@H](NC(=O)[C@H](CCCNC(=N)N)NC(=O)CNC(=O)[C@H](CC(C)C)NC(=O)[C@@H](NC(=O)[C@H](C)NC(=O)[C@@H](NC(=O)[C@H](CO)NC(=O)[C@H](CC(C)C)NC(=O)[C@H](CCC(N)=O)NC(=O)[C@H](CO)NC(=O)[C@H](C)NC(=O)C1CCN(C(=O)CCCCCCCCCCCCCCCCCCC(=O)O)CC1)[C@@H](C)O)C(C)C)C(=O)N[C@@H](CO)C(=O)N[C@@H](CCC(=O)O)C(=O)N[C@@H](CCC(=O)O)C(=O)N[C@@H](CC(C)C)C(=O)N[C@@H](Cc1c[nH]cn1)C(=O)N[C@@H](CCCNC(=N)N)C(=O)N[C@@H](CC(C)C)C(=O)N[C@@H](CCC(N)=O)C(=O)N[C@@H](CC(=O)O)C(=O)N[C@@H](Cc1ccc(O)cc1)C(=O)N1CCC[C@H]1C(=O)N[C@@H](CCCNC(=N)N)C(=O)N[C@H](C(=O)N[C@@H](CC(=O)O)C(=O)N[C@H](C(=O)NCC(=O)N[C@@H](CO)C(=O)NCC(=O)N[C@@H](CO)C(=O)N1CCC[C@H]1C(N)=O)C(C)C)[C@@H](C)O` [M56] ({C20 diacid-Inp}-ASQLSTAVLGRLSEELHRLQDYPRTDVGSGSP-NH2): the EC50 amounted to 0.017 nM.

`CC(C)C[C@H](NC(=O)[C@H](CCCNC(=N)N)NC(=O)CNC(=O)[C@H](CC(C)C)NC(=O)[C@@H](NC(=O)[C@H](C)NC(=O)[C@@H](NC(=O)[C@H](CO)NC(=O)[C@H](CC(C)C)NC(=O)[C@H](CCC(N)=O)NC(=O)[C@H](CO)NC(=O)[C@H](C)NC(=O)COCCOCCNC(=O)COCCOCCNC(=O)CC[C@H](NC(=O)CCCCCCCCCCCCCCCCCCC(=O)O)C(=O)O)[C@@H](C)O)C(C)C)C(=O)N[C@@H](CO)C(=O)N[C@@H](CCC(=O)O)C(=O)N[C@@H](CCC(=O)O)C(=O)N[C@@H](CC(C)C)C(=O)N[C@@H](Cc1c[nH]cn1)C(=O)N[C@@H](CCCNC(=N)N)C(=O)N[C@@H](CC(C)C)C(=O)N[C@@H](CCC(N)=O)C(=O)N[C@@H](CC(=O)O)C(=O)N[C@@H](Cc1ccc(O)cc1)C(=O)N1CCC[C@H]1C(=O)N[C@@H](CCCNC(=N)N)C(=O)N[C@H](C(=O)N[C@@H](CC(=O)O)C(=O)N[C@H](C(=O)NCC(=O)N[C@@H](CO)C(=O)NCC(=O)N[C@@H](CO)C(=O)N1CCC[C@H]1C(N)=O)C(C)C)[C@@H](C)O` [M57] ({C20 diacid-γGlu-AEEA-AEEA}-ASQLSTAVLGRLSEELHRLQDYPRTDVGSGSP-NH2) registered an EC50 of 0.017 nM. As for `CC(C)C[C@H](NC(=O)[C@H](CCCNC(=N)N)NC(=O)CNC(=O)[C@H](CC(C)C)NC(=O)[C@@H](NC(=O)[C@H](C)NC(=O)[C@@H](NC(=O)[C@H](CO)NC(=O)[C@H](CC(C)C)NC(=O)[C@H](CCC(N)=O)NC(=O)[C@H](CO)NC(=O)[C@H](C)NC(=O)COCCOCCNC(=O)COCCOCCNC(=O)[C@H](CCC(=O)O)NC(=O)CCCCCCCCCCCCCCCCCCC(=O)O)[C@@H](C)O)C(C)C)C(=O)N[C@@H](CO)C(=O)N[C@@H](CCC(=O)O)C(=O)N[C@@H](CCC(=O)O)C(=O)N[C@@H](CC(C)C)C(=O)N[C@@H](Cc1c[nH]cn1)C(=O)N[C@@H](CCCNC(=N)N)C(=O)N[C@@H](CC(C)C)C(=O)N[C@@H](CCC(N)=O)C(=O)N[C@@H](CC(=O)O)C(=O)N[C@@H](Cc1ccc(O)cc1)C(=O)N1CCC[C@H]1C(=O)N[C@@H](CCCNC(=N)N)C(=O)N[C@H](C(=O)N[C@@H](CC(=O)O)C(=O)N[C@H](C(=O)NCC(=O)N[C@@H](CO)C(=O)NCC(=O)N[C@@H](CO)C(=O)N1CCC[C@H]1C(N)=O)C(C)C)[C@@H](C)O` [M58] ({C20 diacid}-E[AEEA][AEEA]ASQLSTAVLGRLSEELHRLQDYPRTDVGSGSP-NH2), the figure is 0.017 nM; as for `CC(C)C[C@H](NC(=O)[C@H](CCCNC(=N)N)NC(=O)CNC(=O)[C@H](CC(C)C)NC(=O)[C@@H](NC(=O)[C@H](C)NC(=O)[C@@H](NC(=O)[C@H](CO)NC(=O)[C@H](CC(C)C)NC(=O)[C@H](CCC(N)=O)NC(=O)[C@H](CO)NC(=O)[C@H](C)NC(=O)COCCOCCNC(=O)COCCOCCNC(=O)C[C@H](NC(=O)CCCCCCCCCCCCCCCCCCC(=O)O)C(=O)O)[C@@H](C)O)C(C)C)C(=O)N[C@@H](CO)C(=O)N[C@@H](CCC(=O)O)C(=O)N[C@@H](CCC(=O)O)C(=O)N[C@@H](CC(C)C)C(=O)N[C@@H](Cc1c[nH]cn1)C(=O)N[C@@H](CCCNC(=N)N)C(=O)N[C@@H](CC(C)C)C(=O)N[C@@H](CCC(N)=O)C(=O)N[C@@H](CC(=O)O)C(=O)N[C@@H](Cc1ccc(O)cc1)C(=O)N1CCC[C@H]1C(=O)N[C@@H](CCCNC(=N)N)C(=O)N[C@H](C(=O)N[C@@H](CC(=O)O)C(=O)N[C@H](C(=O)NCC(=O)N[C@@H](CO)C(=O)NCC(=O)N[C@@H](CO)C(=O)N1CCC[C@H]1C(N)=O)C(C)C)[C@@H](C)O` [M59] ({C20 diacid-βAsp-AEEA-AEEA}-ASQLSTAVLGRLSEELHRLQDYPRTDVGSGSP-NH2), 0.017 nM; as for `CC(C)C[C@H](NC(=O)[C@H](CCCNC(=N)N)NC(=O)CNC(=O)[C@H](CC(C)C)NC(=O)[C@@H](NC(=O)[C@H](C)NC(=O)[C@@H](NC(=O)[C@H](CO)NC(=O)[C@H](CC(C)C)NC(=O)[C@H](CCC(N)=O)NC(=O)[C@H](CO)NC(=O)[C@H](C)NC(=O)COCCOCCNC(=O)COCCOCCNC(=O)[C@H](CC(=O)O)NC(=O)CCCCCCCCCCCCCCCCCCC(=O)O)[C@@H](C)O)C(C)C)C(=O)N[C@@H](CO)C(=O)N[C@@H](CCC(=O)O)C(=O)N[C@@H](CCC(=O)O)C(=O)N[C@@H](CC(C)C)C(=O)N[C@@H](Cc1c[nH]cn1)C(=O)N[C@@H](CCCNC(=N)N)C(=O)N[C@@H](CC(C)C)C(=O)N[C@@H](CCC(N)=O)C(=O)N[C@@H](CC(=O)O)C(=O)N[C@@H](Cc1ccc(O)cc1)C(=O)N1CCC[C@H]1C(=O)N[C@@H](CCCNC(=N)N)C(=O)N[C@H](C(=O)N[C@@H](CC(=O)O)C(=O)N[C@H](C(=O)NCC(=O)N[C@@H](CO)C(=O)NCC(=O)N[C@@H](CO)C(=O)N1CCC[C@H]1C(N)=O)C(C)C)[C@@H](C)O` [M60] ({C20 diacid}-D[AEEA][AEEA]ASQLSTAVLGRLSEELHRLQDYPRTDVGSGSP-NH2), 0.016 nM. As for `CC(C)C[C@H](NC(=O)[C@H](CCCNC(=N)N)NC(=O)CNC(=O)[C@H](CC(C)C)NC(=O)[C@@H](NC(=O)[C@H](C)NC(=O)[C@@H](NC(=O)[C@H](CO)NC(=O)[C@H](CC(C)C)NC(=O)[C@H](CCC(N)=O)NC(=O)[C@H](CO)NC(=O)[C@H](C)NC(=O)COCCOCCNC(=O)COCCOCCNC(=O)C1CCN(C(=O)CCCCCCCCCCCCCCCCCCC(=O)O)CC1)[C@@H](C)O)C(C)C)C(=O)N[C@@H](CO)C(=O)N[C@@H](CCC(=O)O)C(=O)N[C@@H](CCC(=O)O)C(=O)N[C@@H](CC(C)C)C(=O)N[C@@H](Cc1c[nH]cn1)C(=O)N[C@@H](CCCNC(=N)N)C(=O)N[C@@H](CC(C)C)C(=O)N[C@@H](CCC(N)=O)C(=O)N[C@@H](CC(=O)O)C(=O)N[C@@H](Cc1ccc(O)cc1)C(=O)N1CCC[C@H]1C(=O)N[C@@H](CCCNC(=N)N)C(=O)N[C@H](C(=O)N[C@@H](CC(=O)O)C(=O)N[C@H](C(=O)NCC(=O)N[C@@H](CO)C(=O)NCC(=O)N[C@@H](CO)C(=O)N1CCC[C@H]1C(N)=O)C(C)C)[C@@H](C)O` [M62] ({C20 diacid-Inp-AEEA-AEEA}-ASQLSTAVLGRLSEELHRLQDYPRTDVGSGSP-NH2), the figure is 0.016 nM; as for `CC(C)C[C@H](NC(=O)[C@H](CCCNC(=N)N)NC(=O)CNC(=O)[C@H](CC(C)C)NC(=O)[C@@H](NC(=O)[C@H](C)NC(=O)[C@@H](NC(=O)[C@H](CO)NC(=O)[C@H](CC(C)C)NC(=O)[C@H](CCC(N)=O)NC(=O)[C@H](CO)NC(=O)[C@H](C)NC(=O)COCCOCCNC(=O)COCCOCCNC(=O)COCCOCCNC(=O)COCCOCCNC(=O)CC[C@H](NC(=O)CCCCCCCCCCCCCCCCCCC(=O)O)C(=O)O)[C@@H](C)O)C(C)C)C(=O)N[C@@H](CO)C(=O)N[C@@H](CCC(=O)O)C(=O)N[C@@H](CCC(=O)O)C(=O)N[C@@H](CC(C)C)C(=O)N[C@@H](Cc1c[nH]cn1)C(=O)N[C@@H](CCCNC(=N)N)C(=O)N[C@@H](CC(C)C)C(=O)N[C@@H](CCC(N)=O)C(=O)N[C@@H](CC(=O)O)C(=O)N[C@@H](Cc1ccc(O)cc1)C(=O)N1CCC[C@H]1C(=O)N[C@@H](CCCNC(=N)N)C(=O)N[C@H](C(=O)N[C@@H](CC(=O)O)C(=O)N[C@H](C(=O)NCC(=O)N[C@@H](CO)C(=O)NCC(=O)N[C@@H](CO)C(=O)N1CCC[C@H]1C(N)=O)C(C)C)[C@@H](C)O` [M63] ({C20 diacid-γGlu-AEEA-AEEA-AEEA-AEEA}-ASQLSTAVLGRLSEELHRLQDYPRTDVGSGSP-NH2), 0.037 nM.
